The text below walks through data of patent US20150299290A1, “IMMUNOGENIC VACCINE” (University of Georgia Research Foundation, Inc., priority 2010, published 2015).

Where a SMILES comes first, the peptide text is derived from it. The star is where a group is joined. Propyl(2R-PamO,3-PamO) = CCCCCCCCCCCCCCCC(=O)OC[C@H](C*)OC(=O)CCCCCCCCCCCCCCC; Palmitoyl = CCCCCCCCCCCCCCCC(=O)*

One assay deals with RAW γNO(−) cells. Kind of assay: TNF-α and IFN-β production by mouse macrophages (Example 3). It is filed as cell-based. The settings on record: best-fit values (Prism). As for the experimental part:
After 5 hours, the supernatants were harvested and examined for mouse TNF-α and IFN-β using commercial or in-house developed capture ELISA assays, respectively.

A further assay deals with RAW 264.7 γNO(−) cells. Put plainly: TNF-α and IFN-β assays in macrophages (Example 6). Conditions: 5.5 h. Format: cell-based, mouse. The method, then: To examine cytokine production, mouse macrophages (RAW γNO(−) cells) were exposed over a wide range of concentrations to compounds 21-24, E. coli 055:B5 LPS and prototypic E. coli bisphosphoryl lipid A (Zhang, J. Am. Chem. Soc. 2007, 129, 5200-5216). After 5.5 h, the supernatants were harvested and examined for mouse TNF-α and IFN-β using commercial or in-house developed capture ELISAs, respectively (FIG. 6). […] The reduced efficacy of compounds 21 and 23 is probably a beneficial property, because LPS can over-activate the innate immune system leading to symptoms of septic shock.
RAW 264.7 γNO(−) cells were plated on the day of the exposure assay as 2×10^5 cells/well in 96-well plates (Nunc) and incubated with different stimuli for 5.5 h in the presence or absence of polymyxin B. Culture supernatants were collected and stored frozen (−80° C.) until assayed for cytokine production. Concentrations of TNF-α were determined using the TNF-α DuoSet ELISA Development kit from R&D Systems. Concentrations of IFN-β were determined as follows. ELISA MaxiSorp plates were coated with rabbit polyclonal antibody against mouse IFN-β (PBL Biomedical Laboratories). IFN-β in standards and samples was allowed to bind to the immobilized antibody. Rat anti-mouse IFN-β antibody (USBiological) was then added, producing an antibody-antigen-antibody “sandwich”. Next, horseradish peroxidase (HRP) conjugated goat anti-rat IgG (H+L) antibody (Pierce) and a chromogenic substrate for HRP 3,3′,5,5′-tetramethylbenzidine (TMB; Pierce) were added. After the reaction was stopped, the absorbance was measured at 450 nm with wavelength correction set to 540 nm. Concentration-response data were analyzed using nonlinear least-squares curve fitting in Prism (GraphPad Software, Inc.). […] The Hill slope was set at 1 to be able to compare the EC50 values of the different inducers. All cytokine values are presented as the means±SD of triplicate measurements, with each experiment being repeated three times.

Assay [1] has as its system GSTPVS(β-O-GlcNAc)SANM (BSA-MI-66 conjugate). The arrangement: species or system BALB/c mice. Conditions: mouse, in vivo.

Turning to `CCCCCCCCCCCCCCCC(=O)OC[C@H](CSC[C@H](N)C(=O)N[C@@H](CO)C(=O)N[C@@H](CCCCN)C(=O)N[C@@H](CCCCN)C(=O)N[C@@H](CCCCN)C(=O)N[C@@H](CCCCN)C(=O)O)OC(=O)CCCCCCCCCCCCCCC` [Pam2CysSK4, S—[(R)-2,3-bis(palmitoyloxy)-propyl]-(R)-cysteinyl-(S)-seryl-(S)-lysine-(S)-lysine-(S)-lysine-(S)-lysyne] (H-C(Propyl(2R-PamO,3-PamO))SKKKK-OH; C-terminus assumed), the “Emax for TNF-α production” value in the assay on RAW γNO(−) cells is listed as 631 pg/mL.
For the compound `CCCCCCCCCCCCCCCC(=O)N[C@@H](CSC[C@@H](COC(=O)CCCCCCCCCCCCCCC)OC(=O)CCCCCCCCCCCCCCC)C(=O)N[C@@H](CO)C(=O)N[C@@H](CCCCN)C(=O)N[C@@H](CCCCN)C(=O)N[C@@H](CCCCN)C(=O)N[C@@H](CCCCN)C(=O)O` [Pam3CysSK4, N-palmitoyl-S—[(R)-2,3-bis(palmitoyloxy)-propyl]-(R)-cysteinyl-(S)-seryl-(S)-lysine-(S)-lysine-(S)-lysine-(S)-lysyne] (Palmitoyl-C(Propyl(2R-PamO,3-PamO))SKKKK-OH), the “Emax for TNF-α production” value in the assay on RAW γNO(−) cells stood at 932 pg/mL. For the same compound, in the assay with RAW 264.7 γNO(−) cells, the IFN-β secretion entry is given as “none of the compounds induced the production of INF-β”; the TNF-α secretion entry is “induced secretion of TNF-α with similar efficacies and potencies”.
Consider “Pam3CysSK4G-C-KLFAVWKITYKDT-G-GSTPVS(β-O-GluNAc)SANM [Compound 52]”, for which, in assay [1], the “IgG1 titer (anti-GSTPVS(β-O-GlcNAc)SANM)” value is 61,400, the “IgG2a titer (anti-GSTPVS(β-O-GlcNAc)SANM)” value is given as 33,200, the “IgG2b titer (anti-GSTPVS(β-O-GlcNAc)SANM)” value is given as 12,500 and the “IgG3 titer (anti-GSTPVS(β-O-GlcNAc)SANM)” value is given as 69,400. In assay [1], the “IgG total titer (anti-GSTPVS(β-O-GlcNAc)SANM)” value was 76,500 and the “IgM titer (anti-GSTPVS(β-O-GlcNAc)SANM)” value is 81,900.
Consider “Pam3CysSK4G-C-KLFAVWKITYKDT-G-GSTPVS(β-S-GluNAc)SANM [Compound 53]”, for which, in assay [1], the “IgG1 titer (anti-GSTPVS(β-O-GlcNAc)SANM)” value is on record as 111,800, the “IgG2a titer (anti-GSTPVS(β-O-GlcNAc)SANM)” value is 55,600, the “IgG2b titer (anti-GSTPVS(β-O-GlcNAc)SANM)” value is 21,300 and the “IgG3 titer (anti-GSTPVS(β-O-GlcNAc)SANM)” value is given as 111,700. In assay [1], the “IgG total titer (anti-GSTPVS(β-O-GlcNAc)SANM)” value is reported as 151,600 and the “IgM titer (anti-GSTPVS(β-O-GlcNAc)SANM)” value is 21,900.
As to monophosphoryl lipid A [Compound 24], in the assay with RAW 264.7 γNO(−) cells, the IFN-β secretion entry is “stimulated the cells to produce TNF-α and INF-β”; the TNF-α secretion entry was “stimulated the cells to produce TNF-α and INF-β”.
